# Measured values taken from patent US10822317B2, “Methods and compositions for wound healing” (QBiotics Limited, priority 2013, dated 2020).
# Assays:
# [1] = test system: HaCaT cells; assay: HaCaT scratch repopulation with Mitomycin C (migration study); format: cell-based, human; conditions: with 1 μg/mL Mitomycin C; 0.001 to 1.0 μg/mL; p<0.05
# [2] = test system: TGF-β1-stimulated dermal fibroblasts; assay: Differentiation of adult dermal fibroblasts into myofibroblasts (α-SMA expression); format: cell-based, human
# Experimental: The effects of Compounds […] and 37 on dermal fibroblast differentiation to myofibroblasts was examined by the extent of α-SMA expression by TGF-βi-stimulated dermal fibroblasts.
# Following trypsinization, fibroblasts were seeded in 8-well, Permanoxchamber slides (VWR International) in DMEM medium, containing antibiotics, 2 mM L-glutamine and 10% foetal calf serum (250 μL, all purchased from Invitrogen); at a cell density of 2.5×10^4 cells/well and maintained at 37° C. in 5% CO2/95% air for 48 h.
# At 48 hr, fibroblasts were growth-arrested in serum-free DMEM for 48 hr and then replaced with serum-free DMEM (250 μL), containing Compounds 1 or 37 at concentrations of 0, 0.001, 0.01, 0.1, 1.0 and 10.0 μg/mL (3 wells/concentration/compound) and TGF-β1 (10 ng/ml, Peprotech). Fibroblasts were maintained at 37° C. in 5% CO2/95% air for 72 hr.
# At 72 hr, chamber slide wells were washed with PBS (×1, 250 μL) and fixed in 4% paraformaldehyde (100 μL/well) for 10 min. The chamber slide wells were then washed again with PBS (×1, 250 μl), treated with 0.1% Triton X-100 in PBS (100 μL, Sigma) for 5 min and re-washed with PBS (×1, 250 μL). Wells were blocked with 1% BSA in PBS (250 μL, Sigma) for 1 h and washed (×3) in 0.1% BSA/PBS.
# Wells were incubated with monoclonal mouse anti-human α-SMA, clone 1A4 (1:100, 150 ul, Sigma) at 4° C. overnight, washed (×6) in 0.1% BSA/PBS and incubated with Alexa Fluor 488 goat anti-mouse IgG antibody (1:1000, 250 μL, Invitrogen), at room temperature for 1 h, under darkness. Chamber slides were washed (×6) in 0.1% BSA/PBS and counterstained with Hoescht 33258 solution for 30 min under darkness (1:2000, 250 μL, Sigma). Chamber were subsequently removed for slides and treated with Fluorsave (Santa Cruz) for 10 min under darkness. Slides were viewed by fluorescence microscopy (Leica Microsystem), with digital images being capturedat ×200 magnification. Digital images were processed using HC Image J Software.
# [3] = test system: chronic, non-healing wounds; assay: Veterinary clinical treatment of non-healing and difficult wounds, 10 pet animals (overall); format: in vivo, dogs, tree kangaroos, spectacled flying fox; conditions: eight completed cases; open wounds, no dressings
# Experimental: Compound 1 has been used to treat to heal difficult wounds in 10 pet (i.e. privately owned and cared for) animals with the aim of improving second intention wound healing
# (§1) Seven dogs (Canis lupus familiaris) and one tree kangaroo (Dendrolagus humholzii) with chronic, non-healing wounds that were unresponsive to current veterinary standards-of-care for these indications were treated with Compound 1 by independent veterinarians. A second tree kangaroo and a spectacled flying fox (Pteropus conspicillatus) with wounds unsuited for initial treatment with current standards-of-care were also treated with Compound 1. All cases were managed as open wounds without the use of dressings or other bandaging during the course of treatment with Compound 1 and the subsequent period of wound resolution. Unless stated in individual case studies, no concomitant medications were used over the course of treatments with Compound 1.
# Case and treatment notes for each of these patients are summarised below. Note that the return presentation of these animals to the treating veterinarians was often irregular and wound healing outcomes may have occurred well before the return assessment visits.
# [4] = test system: severe lacerated wound on the head; assay: Veterinary case study 10, lacerated head wound of a spectacled flying fox; format: in vivo, Pteropus conspicillatus
# Experimental: as §1
# Case notes: • The patient presented as a 4 month old flying fox with a deep penetrating wound on the head […] caused by entanglement in barbed wire. • In the opinion of the treating veterinarian who had extensive experience in wildlife injuries (including flying foxes) normal standard of care treatments were likely to be highly problematic in causing the right eye to lose shape and not be able to close, either due to excessive scar tissue formation associated with surgery or the extent of granulation required if wound healing dressings were applied. • Compound 1 was applied to the wound in 3 applications of 0.1 mL of 5 mg/mL gel formulation over a 28 day period (Days 1, 10 and 28). […] A very healthy granulation bed was present.
# [5] = test system: wounds following necrosis and sloughing of spontaneous tumours; assay: Resolution of wounds after sloughing of spontaneous tumours treated by intratumoural injection, canine; format: in vivo; conditions: for Average days from tumour slough to wound closure: Canine
# Experimental: (§2) necrosis and sloughing of spontaneous tumours that had been treated by intratumoural injection of Compound 1 (30% 1,2 propanediol formulation at either 0.5 or 1.0 mg/mL concentration) in twenty-four companion animals are summarised in Table 17.
# (§3) Note that all wounds were managed as open wounds and no bandaging, dressings, lotions or concomitant medications were used in any of these cases.
# [6] = test system: wounds following necrosis and sloughing of spontaneous tumours; assay: Resolution of wounds after sloughing of spontaneous tumours treated by intratumoural injection, feline; format: in vivo
# Experimental: as §2, with “Veterinary clinical data on speed of resolution of wounds that formed following necrosis” for “necrosis”
# as §3
# [7] = 5 to 10% tissue deficit across the original wound area
# [8] = <5% tissue deficit across the original wound area
# [9] = >10% tissue deficit across the original wound area
# [10] = Hair covers <50% of original wound area
# [11] = Hair covers >50% of original wound area
# [12] = Hair covers >95% of original wound area
# [13] = Localised scar covering <10% of original wound area
# [14] = Scarring covering >10% of original wound area
# [15] = Scarring not obvious visually or by touch
structure (smiles),measurement,setting,value
"CC=C(C)C(=O)OC1C(C)C2(O)C(C3OC3(CO)C(O)C3(O)C(=O)C(C)=CC32)C2C(C)(C)C12OC(=O)C(C)CC (stereo not drawn) [Compound 1, 12-tigloyl-13-(2-methylbutanoyl)-6,7-epoxy-4,5,9,12,13,20-hexahydroxy-1-tigliaen-3-one]",scratch repopulation and closure (migration study),[1],enhanced
same,differentiation of TGF-β1-treated adult dermal fibroblasts into myofibroblasts,"[2]; 0.001 to 10.0 μg/mL, 72 hr",affected differentiation into myofibroblasts in a concentration-dependent manner
same,α-SMA stress fibre formation and polygonal cellular morphology (myofibroblast differentiation),"[2]; TGF-β1 10 ng/ml, 72 hr, 0.1 μg/mL",lacked the α-SMA stress fibre formation and the typical polygonal cellular morphology
same,myofibroblast morphology,[2]; between 1 and 10 μg/mL,subtle alterations in myofibroblast morphology
same,wound resolution,[3],effective wound resolution with minimal scarring
same,wound status,"[4]; Case 10, flying fox, head wound, 3 x 0.1 mL gel 5 mg/mL (Days 1, 10, 28), 14 days after the initial treatment",significant tissue infill and remodeling
same,wound status,"[4]; Case 10, 55 days after the initial treatment",good tissue infill over the entire area of the original wound
same,eye function,"[4]; Case 10, by 28 days",capable of fully closing
same,"No. of dogs: Tissue deficit at wound site, Minor",[5]; [7],0
same,"No. of dogs: Tissue deficit at wound site, Nil or minimal",[5]; [8],15
same,"No. of dogs: Tissue deficit at wound site, Substantial",[5]; [9],0
same,Average days from tumour slough to wound closure,"[5]; wound size class 0.25 to 9 cm^2, 7 cases",24 ± 16 days
same,Average days from tumour slough to wound closure,"[5]; wound size class 9 to 50 cm^2, 5 cases",40 ± 15 days
same,Average days from tumour slough to wound closure,"[5]; wound size class >50 to 130 cm^2, 3 cases",62 ± 18 days
same,"No. of dogs: Hair regrowth on wound area, Sparse",[5]; [10],7
same,"No. of dogs: Hair regrowth on wound area, Partial",[5]; [11],1
same,"No. of dogs: Hair regrowth on wound area, Full",[5]; [12],12
same,"No. of dogs: Scarring & skin thickening, Minor",[5]; [13],1
same,"No. of dogs: Scarring & skin thickening, Substantial",[5]; [14],1
same,"No. of dogs: Scarring & skin thickening, Nil or minimal",[5]; [15],13
same,"No. of dogs: Change in hair colour, No",[5]; healed wound site,15
same,"No. of dogs: Change in hair colour, Yes",[5]; healed wound site,0
same,"No. of dogs: Skin pigmentation, Hyperpigmentation",[5]; healed wound site,0
same,"No. of dogs: Skin pigmentation, Hypopigmentation",[5]; healed wound site,3
same,"No. of dogs: Skin pigmentation, Normal",[5]; healed wound site,11
same,"No. of dogs: Skin pigmentation, Patchy",[5]; healed wound site,1
same,"No. of cats: Tissue deficit at wound site, Minor",[6]; [7],0
same,"No. of cats: Tissue deficit at wound site, Nil or minimal",[6]; [8],3
same,"No. of cats: Tissue deficit at wound site, Substantial",[6]; [9],0
same,Average days from tumour slough to wound closure,"[6]; Feline, wound size class 0.25 to 12 cm^2, 3 cases",17 ± 10 days
same,"No. of cats: Hair regrowth on wound area, Sparse",[6]; [10],0
same,"No. of cats: Hair regrowth on wound area, Partial",[6]; [11],1
same,"No. of cats: Hair regrowth on wound area, Full",[6]; [12],2
same,"No. of cats: Scarring & skin thickening, Minor",[6]; [13],0
same,"No. of cats: Scarring & skin thickening, Substantial",[6]; [14],0
same,"No. of cats: Scarring & skin thickening, Nil or minimal",[6]; [15],3
same,"No. of cats: Change in hair colour, No",[6]; healed wound site,2
same,"No. of cats: Change in hair colour, Yes",[6]; healed wound site,1
same,"No. of cats: Skin pigmentation, Hyperpigmentation",[6]; healed wound site,0
same,"No. of cats: Skin pigmentation, Hypopigmentation",[6]; healed wound site,0
same,"No. of cats: Skin pigmentation, Normal",[6]; healed wound site,3
same,"No. of cats: Skin pigmentation, Patchy",[6]; healed wound site,0
